Here are results for two compounds from patent publication US8618074B2, “GPCR enhanced neuroprotection to treat brain injury” (Board of Regents of the University of Texas System, priority 2007, dated 2013).

Each structure is given as a SMILES string.

Assay [1] concerns astrocytes. Put plainly: Rose Bengal induced blood clot, Fluo4 Ca2+ imaging of astrocytes in live mouse. Type of assay: in vivo. To be noted: 2-MeSADP co-injected with Rose Bengal in tail vein; blood brain barrier breakdown at clot. Here is the method:
Our working hypothesis states that P2Y-R activation in astrocytes leads to intracellular Ca^2+ release. […] In this experiment, the Ca^2+ indicator Fluo4-AM was loaded into astrocytes (90 minutes, 100 μM). Rose Bengal (RB) and the P2Y-R specific agonist 2-MeSADP were then co-injected in the tail vein of a live mouse. RB was illuminated with green light (543 nm), inducing reactive singlet oxygen and blood clots. A blood vessel was free flowing at 180 minutes, then clotted around 220 minutes after RB injection. […] More distal astrocytes a4 and a5 were not activated.

In assay [2] the test system is astrocytes. In words: Single cell astrocyte edema (swelling) after RB-induced photothrombotic event. The settings on record: tail-vein injection. In kind it is in vivo, mouse. An excerpt: A critical role for mitochondrial metabolism is also supported by new data obtained from a transgenic mouse model expressing a mitochondrial targeted DNA restriction enzyme, EcoR1, under the control of doxycycline (tTA/mtEcoR1, courtesy of Dr. Chris Walters, UTHSCSA). […] In addition to optically imaging multiple physiological parameters in single cells (e.g. mitochondrial membrane potentials and Ca2+ levels in real time), we have successfully imaged single cells edema formation in response to a Rose Bengal (RB)-induced photothrombotic event in a single blood vessel. Our preliminary measurements indicate that astrocyte volume increases over 6-fold during edema formation.

Assay [3] deals with astrocytes. In words: Confocal Ca2+ imaging of astrocytes on bath application of ATP. To be noted: bath application of ATP 1 μM; cultured young and old astrocytes. Type of assay: cell-based, mouse. An excerpt: The next physiological response that we investigated during aging was intracellular Ca^2+ signaling. Metabotropic purinergic receptors (P2Y-Rs) are well known to generate robust Ca^2+ signals in astrocytes. Our initial bias was that we would observe reduced Ca^2+ responses in astrocytes cultured from old mice. […] Ca^2+ measurements were made using standard confocal imaging of Ca^2+ sensitive fluorescent dyes, which loaded equally well for both young and old astrocytes. […] The first surprise finding was that a higher percentage of old astrocytes (more than half) responded to exogenously applied ATP. […] However, we can account for these observed enhancements to cytosolic Ca^2+ signaling in old astrocytes by a reduced ability of mitochondria to sequester Ca^2+ during aging. […] The ability of mitochondria to sequester Ca^2+, and thereby modulate IP3-induced Ca^2+ release, is critically dependent on the mitochondrial membrane potential (ΔΨ) and close proximity of mitochondria to the Ca^2+ release site. This proximity allows mitochondria to sense greater Ca^2+ concentrations than those present in the bulk cytosolic compartment. Consequently, a reduction in ΔΨ with age will reduce mitochondrial Ca^2+ buffering, thereby leading to increased cytosolic Ca^2+ release and faster Ca^2+ dynamics.

The test system of assay [4] is astrocytes. Put plainly: Fura-2 two-photon imaging of intracellular Ca2+ response. Type of assay: cell-based, mouse. Here is the method: Ca^2+ activity was imaged as previously described (Camacho and Lechleiter, 1995). In brief, cultured astrocytes were incubated with the fura-2 am (Molecular Probes, #F-1221) 30 min prior to the experiment. Images were acquired with two-photon excitation (800 nm) at the rate of 1.5 images/ sec. […] Images were analyzed with Image J and ANALYZE® software (the Mayo Foundation, Rochester, MN). The D-enantiomer of the 1P3-BM ester was synthesized by Stuart Conway in the Cambridge University Chemical Laboratory by using a modification of the protocol of Tsien and co-workers (Li et al., 1997).
The primary response of glial cells to extracellular ATP is an increase in intracellular Ca^2+. To investigate whether the protective effect of ATP could be initiated by a Ca^2+ response, we loaded cultures of astrocytes with the Ca^2+ indicator dye Fura-2 AM (10 μM for 30 minutes). Fura-2 fluorescence was imaged with 2-photon microscopy using 800 nm excitation. At this wavelength, fluorescence is primarily due to the Ca^2+ free form of fura-2. […] When young astrocyte cultures were exposed to extracellular ATP (10 μM for 10 minutes), the peak intracellular Ca^2+ (−ΔF/F) was increased to 0.46±0.02 (n=25, pooled from 2 experiments). […] We tested whether the ATP-induced Ca^2+ response could be attributed to the metabotropic pathway, since IP3 mediated Ca^2+ release can stimulate mitochondrial energy production as well as sensitize mitochondria to apoptotic stimuli. Astrocytes cultured from old mice were pretreated with Xestospongin C (XeC, 25 μM for 30 minutes), which is a competitive inhibitor of IP3 binding to the IP3R. […] This is consistent with other reports showing that activation of the ionotropic P2X receptor activation also increases Ca^2+ in cultured astrocytes. To determine whether the metabotropic pathway was involved with the protective effect of extracellular ATP, we subsequently exposed the XeC/ATP treated astrocytes to oxidative stress. As described above, the perfusate contained t-BuOOH (100 μM) and TMRE (200 nM) to monitor ΔΨ. Under these experimental conditions, the average time until ΔΨ collapse was reduced to 5.48±0.22 (n=23, pooled from 2 experiments) in young astrocytes (FIG. 1C) and to 4.02±0.18 h (n=19, pooled from 2 experiments) in old astrocytes (FIG. 2C). […] We concluded that the protective effect of ATP on astrocytes was mediated by P2Y-receptors (P2Y-Rs).

Assay [5] concerns astrocytes. Put plainly: Mitochondrial membrane potential ΔΨ estimated as log(Fmito/Fcyto) with TMRE. In kind it is cell-based, mouse. To be noted: treating astrocytes for 10 minutes. As to the method:
Mitochondrial membrane potentials (ΔΨs) was measured as previously described using the potential sensitive dye tetra-methyl rhodamine ethyl ester (TMRE, Molecular Probes, #T-669) (Lin and Lechleiter, 2002). Images were acquired with a 60× oil 1.4 NA objective on a Nikon PCM2000 confocal microscope custom adapted for two-photon imaging. A Ti-sapphire Coherent Mira 900 Laser pumped with a 5W Verdi laser (Coherent Inc., Santa Clara, Calif.) was used to excite TMRE at 800 nm A neutral-density filter wheel was used to attenuate the laser intensity so that no detectable photobleaching of TMRE was observed.
We confirmed this by directly measuring the effect of ATP, ATP plus XeC and IP3-BM treatments on ΔΨ. Cultured cells were labeled with TMRE (200 nM) and imaged with a two-photon microscope as described above. ΔΨ was estimated as the log (Fmito/Fcyto) where Fmito is the peak fluorescent intensity observed in single mitochondria (Farkas et al., 1989; Lin et al., 2005). The mean values of individual mitochondria from a single cell were used for the mitochondrial potential estimate. Fcyto represents the lowest value of TMRE fluorescence observed within the boundaries of the same cell. […] FIG. 5E depicts a histogram plot showing average mitochondrial membrane potentials before and after treatment. The mean resting ΔΨs for untreated (Buffer), ATP-treated, ATP plus XeC-treated and IP3-BM-treated were 1.84+0.01 (n=78 mitochondria, pooled from 2 experiments), 1.84+0.01 (n=85 mitochondria), 1.85+0.01 (n=80 mitochondria) and 1.86+0.01 (n=48 mitochondria), respectively. Astrocyte cultures were then exposed to their respective treatments and the same fields of mitochondria were imaged 10 minutes later.

In the case of `CSc1nc(N)c2ncn([C@@H]3O[C@H](COP(=O)(O)OP(=O)(O)O)[C@@H](O)[C@H]3O)c2n1` [2-MeSADP], the “activation (Ca2+) of astrocytes near the RB-induced clot” value in the assay on astrocytes [1] is “activate nearby astrocytes”. In the assay with astrocytes [2], the “astrocyte swelling (edema)” value is “significantly reduced swelling” and the “time to apparently complete reversal of astrocyte swelling after the initial clot” value is at most 8 h.

`Nc1ncnc2c1ncn2[C@@H]1O[C@H](COP(=O)(O)OP(=O)(O)OP(=O)(O)O)[C@@H](O)[C@H]1O` [ATP]: the “Ca2+ oscillations” value in the assay with astrocytes [3] is on record as “stimulated Ca^2+ oscillations”. In the assay with astrocytes [4] (old astrocytes, ATP 10 μM), the “peak Ca2+ amplitude (−ΔF/F)” value amounted to 0.46±0.04. Further, the “peak intracellular Ca2+ (−ΔF/F)” value with astrocytes [4] (young astrocytes, ATP 10 μM for 10 minutes) amounted to 0.46±0.02. The “ΔΨ (log Fmito/Fcyto) after treatment” value with astrocytes [5] is recorded as 1.98±0.01.
